What all share (type): cell-based
The test system of one experiment is Enterobacter cloacae. Put plainly: MIC against Gram-negative bacteria: Enterobacter cloacae. The conditions noted are these: 5×10^5 CFU/mL. A digest of the protocol: (§1)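 MIC, the lowest recombinant protein concentration giving no bacterial growth, found by two-fold serial dilution of human EGF-domain proteins in triplicate. Inoculum 5×10^5 CFU/mL in LB from cultures at McFarland 0.5; plates incubated at 37° C, 175 rpm shaking.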

Another experiment relates to Aeromonas hydrophila. Nature of the experiment: MIC against Gram-negative bacteria: Aeromonas hydrophila. Conditions: 5×10^5 CFU/mL. A digest of the protocol: as §1
The test system of the next experiment is E. coli BL21. Put plainly: MIC against Gram-negative bacteria: E. coli BL21. The conditions noted are these: 5×10^5 CFU/mL. A digest of the protocol: as §1
Another experiment concerns Pseudomonas aeruginosa. Nature of the experiment: MIC against Gram-negative bacteria: Pseudomonas aeruginosa. The conditions noted are these: 5×10^5 CFU/mL. A digest of the protocol:
as §1

In the next experiment the test system is Moraxella catarrhalis. Put plainly: MIC against Gram-negative bacteria: Moraxella catarrhalis. Conditions: 5×10^5 CFU/mL. A digest of the protocol:
as §1

Another experiment has as its system Klebsiella pneumonia. Nature of the experiment: MIC against Gram-negative bacteria: Klebsiella pneumonia. The conditions noted are these: 5×10^5 CFU/mL. A digest of the protocol: as §1
A further experiment has as its system Proteus mirabilis. Put plainly: MIC against Gram-negative bacteria: Proteus mirabilis. Conditions: 5×10^5 CFU/mL. A digest of the protocol:
as §1

Another experiment deals with Proteus vulgaris. Nature of the experiment: MIC against Gram-negative bacteria: Proteus vulgaris. Conditions: 5×10^5 CFU/mL. A digest of the protocol:
as §1

The subject of a further experiment is Citrobacter diversus. Put plainly: MIC against Gram-negative bacteria: Citrobacter diversus. The conditions noted are these: 5×10^5 CFU/mL. In a few lines:
as §1

Another experiment has as its system E. coli DH5α. Nature of the experiment: Antibacterial activity: MIC and growth curve against E. coli DH5α in 96-well plate. The conditions noted are these: minimal inhibitory concentration against E. coli DH5α; 96-well plate, 5×10^5 CFU/mL, 37° C., judged after 8 h. A digest of the protocol: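 MIC taken as lowest protein level with no bacterial growth, tracked by A600 every 30 min during 37 °C, 175 rpm culture. Two-fold protein series 50-12.5 μg/mL final, triplicate wells, against 5×10^5 CFU/mL of LB-washed mid-log cells.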

The subject of a further experiment is Serratia marcescens. Put plainly: MIC against Gram-negative bacteria: Serratia marcescens. Conditions: 5×10^5 CFU/mL. In a few lines: as §1
Setting [1] is: Enterobacter cloacae, 96-well plate, 37° C., 10 h.
The mark [2] stands for this setting: Aeromonas hydrophila, 96-well plate, 37° C., 10 h.
Setting [3] is: E. coli BL21, 96-well plate, 37° C., 10 h.
Where [4] appears, read: Pseudomonas aeruginosa, 96-well plate, 37° C., 10 h.
The mark [5] stands for this setting: Moraxella catarrhalis, 96-well plate, 37° C., 10 h.
The mark [6] stands for this setting: Klebsiella pneumonia, 96-well plate, 37° C., 10 h.
Setting [7] is: Proteus mirabilis, 96-well plate, 37° C., 10 h.
Setting [8] is: Proteus vulgaris, 96-well plate, 37° C., 10 h.
[9] abbreviates: Citrobacter diversus, 96-well plate, 37° C., 10 h.
The mark [10] stands for this setting: Serratia marcescens, 96-well plate, 37° C., 10 h.
[11] abbreviates: E. cloacae, 10 h cultivation at 37° C.
The mark [12] stands for this setting: A. hydrophila, 10 h cultivation at 37° C.
Setting [13] is: E. coli BL21, 10 h cultivation at 37° C.
The mark [14] stands for this setting: P. aeruginosa, 10 h cultivation at 37° C.
Setting [15] is: M. catarrhalis, 10 h cultivation at 37° C.
Setting [16] is: K. pneumonia, 10 h cultivation at 37° C.
The mark [17] stands for this setting: P. mirabilis, 10 h cultivation at 37° C.
Where [18] appears, read: P. vulgaris, 10 h cultivation at 37° C.
Where [19] appears, read: C. diversus, 10 h cultivation at 37° C.
Where [20] appears, read: S. marcescens, 10 h cultivation at 37° C.
[21] abbreviates: 10 h cultivation at 37° C., two-fold serial dilution.

As to “PRT121 (CGPCFNNGVPILEGTSCRCQCRLGSLGAACE; listed as Homo sapiens)”, in the experiment with Enterobacter cloacae (setting [1]), the “MIC (μg/mL) E. cloacae” value stood at 50 µg/mL. Also, in the experiment on Aeromonas hydrophila (setting [2]), the “MIC (μg/mL) A. hydrophila” value came out at 12.5 µg/mL. The “MIC (μg/mL) E. coli BL21” value in the experiment with E. coli BL21 (setting [3]) amounted to 12.5 µg/mL. Further, the “MIC (μg/mL) P. aeruginosa” value with Pseudomonas aeruginosa (setting [4]) turned out to be 25 µg/mL. Further, the “MIC (μg/mL) M. catarrhalis” value against Moraxella catarrhalis (setting [5]) is 12.5 µg/mL. Also, the “MIC (μg/mL) K. pneumonia” value with Klebsiella pneumonia (setting [6]) was 12.5 µg/mL. Further, in the experiment with Proteus mirabilis (setting [7]), the “MIC (μg/mL) P. mirabilis” value is 25 µg/mL. Also, the “MIC (μg/mL) P. vulgaris” value in the experiment with Proteus vulgaris (setting [8]) is 50 µg/mL. Besides, the “MIC (μg/mL) C. diversus” value with Citrobacter diversus (setting [9]) was 50 µg/mL. The MIC in the experiment on E. coli DH5α amounted to 25 µg/mL. Further, the “MIC (μg/mL) S. marcescens” value against Serratia marcescens (setting [10]) came out at 25 µg/mL.
Consider “PRT798 (FGQDCAQLCSCANNGTCSPIDGSCQCFPGWIGKDCS; listed as Homo sapiens)”, for which the “MIC (μg/mL) E. cloacae” value against Enterobacter cloacae (setting [11]) turned out to be 12.5 µg/mL. Further, in the experiment with Aeromonas hydrophila (setting [12]), the “MIC (μg/mL) A. hydrophila” value came to 50 µg/mL. Also, the “MIC (μg/mL) E. coli BL21” value in the experiment with E. coli BL21 (setting [13]) stood at 25 µg/mL. Also, the “MIC (μg/mL) P. aeruginosa” value in the experiment on Pseudomonas aeruginosa (setting [14]) came to 12.5 µg/mL. For the same substance, the “MIC (μg/mL) M. catarrhalis” value against Moraxella catarrhalis (setting [15]) amounted to 50 µg/mL. For the same substance, the “MIC (μg/mL) K. pneumonia” value in the experiment with Klebsiella pneumonia (setting [16]) was determined as 50 µg/mL. For the same substance, in the experiment on Proteus mirabilis (setting [17]), the “MIC (μg/mL) P. mirabilis” value turned out to be 12.5 µg/mL. Also, the “MIC (μg/mL) P. vulgaris” value in the experiment on Proteus vulgaris (setting [18]) was found to be 50 µg/mL. Also, in the experiment on Citrobacter diversus (setting [19]), the “MIC (μg/mL) C. diversus” value turned out to be 12.5 µg/mL. The substance also came in with an MIC in the experiment with E. coli DH5α of 12.5 µg/mL. For the same substance, the “MIC (μg/mL) S. marcescens” value with Serratia marcescens (setting [20]) turned out to be 25 µg/mL.
On to “PRT1081 (APNPCEANGGQGPCSHLCLINYNRTVSCACPHLMKLHKDNTTCY; listed as Homo sapiens)”, for which the “MIC E. cloacae” value against Enterobacter cloacae (setting [21]) is 50 µg/mL. The “MIC A. hydrophila” value against Aeromonas hydrophila (setting [21]) came out at 12.5 µg/mL. Moreover, in the experiment with E. coli BL21 (setting [21]), the “MIC E. coli BL21” value stood at 12.5 µg/mL. The “MIC P. aeruginosa” value in the experiment on Pseudomonas aeruginosa (setting [21]) is 50 µg/mL. Also, in the experiment with Moraxella catarrhalis (setting [21]), the “MIC M. catarrhalis” value is 12.5 µg/mL. The “MIC K. pneumonia” value in the experiment on Klebsiella pneumonia (setting [21]) turned out to be 12.5 µg/mL. Also, in the experiment on Proteus mirabilis (setting [21]), the “MIC P. mirabilis” value was 25 µg/mL. Also, in the experiment on Proteus vulgaris (setting [21]), the “MIC P. vulgaris” value was 50 µg/mL. Moreover, the “MIC C. diversus” value against Citrobacter diversus (setting [21]) amounted to 50 µg/mL. Further, the MIC with E. coli DH5α amounted to 25 µg/mL. In the experiment with Serratia marcescens (setting [21]), the “MIC S. marcescens” value came out at 12.5 µg/mL.
With “PRT1328 (LINVCLTKNGGCSEFAICNHTGQVERTCTCKPNYIGDGFT; listed as Homo sapiens)”, in the experiment with Enterobacter cloacae (setting [1]), the “MIC against E. cloacae” value came out at 50 µg/mL. Moreover, the “MIC against A. hydrophila” value in the experiment with Aeromonas hydrophila (setting [2]) worked out at 25 µg/mL. In addition, the “MIC against E. coli BL21” value in the experiment with E. coli BL21 (setting [3]) stood at 12.5 µg/mL. Besides, the “MIC against P. aeruginosa” value in the experiment on Pseudomonas aeruginosa (setting [4]) was 50 µg/mL. Further, the “MIC against M. catarrhalis” value in the experiment on Moraxella catarrhalis (setting [5]) is 25 µg/mL. Moreover, the “MIC against K. pneumonia” value against Klebsiella pneumonia (setting [6]) came to 12.5 µg/mL. For the same substance, the “MIC against P. mirabilis” value with Proteus mirabilis (setting [7]) amounted to 50 µg/mL. For the same substance, the “MIC against P. vulgaris” value in the experiment on Proteus vulgaris (setting [8]) was 12.5 µg/mL. Moreover, the “MIC against C. diversus” value against Citrobacter diversus (setting [9]) was determined as 12.5 µg/mL. This substance also registered an MIC in the experiment on E. coli DH5α of 12.5 µg/mL. Also, the “MIC against S. marcescens” value against Serratia marcescens (setting [10]) amounted to 50 µg/mL.
Turning to “PRT872 (CKCNLHANLCSMREGSLQCECEHNTTGPDCGKCKKNFRTRSWRAGSYLPLPHGSPNACAT; listed as Homo sapiens)”, in the experiment with Enterobacter cloacae (setting [11]), the “MIC (μg/mL) E. cloacae” value came out at 25 µg/mL. For the same substance, the “MIC (μg/mL) A. hydrophila” value in the experiment on Aeromonas hydrophila (setting [12]) is 50 µg/mL. In addition, the “MIC (μg/mL) E. coli BL21” value in the experiment on E. coli BL21 (setting [13]) worked out at 50 µg/mL. Moreover, in the experiment with Pseudomonas aeruginosa (setting [14]), the “MIC (μg/mL) P. aeruginosa” value came out at 25 µg/mL. Also, the “MIC (μg/mL) M. catarrhalis” value in the experiment on Moraxella catarrhalis (setting [15]) was 50 µg/mL. In the experiment on Klebsiella pneumonia (setting [16]), the “MIC (μg/mL) K. pneumonia” value was found to be 12.5 µg/mL. For the same substance, the “MIC (μg/mL) P. mirabilis” value against Proteus mirabilis (setting [17]) amounted to 12.5 µg/mL. Moreover, in the experiment with Proteus vulgaris (setting [18]), the “MIC (μg/mL) P. vulgaris” value was determined as 50 µg/mL. Besides, the “MIC (μg/mL) C. diversus” value in the experiment on Citrobacter diversus (setting [19]) was found to be 12.5 µg/mL. Further, the MIC against E. coli DH5α worked out at 25 µg/mL. The “MIC (μg/mL) S. marcescens” value against Serratia marcescens (setting [20]) amounted to 25 µg/mL.
Regarding “PRT491 (LDICSKNPCHNGGLCEEISQEVRGDVFPSYTCTCLKGYAGNHCE; listed as Homo sapiens)”, in the experiment on Enterobacter cloacae (96-well plate, 37° C., 10 h), the “MIC against E. cloacae” value was 50 µg/mL. Moreover, in the experiment on Aeromonas hydrophila (96-well plate, 37° C., 10 h), the “MIC against A. hydrophila” value worked out at 100 µg/mL. Moreover, the “MIC against E. coli BL21” value with E. coli BL21 (96-well plate, 37° C., 10 h) was determined as 25 µg/mL. Besides, the “MIC against P. aeruginosa” value against Pseudomonas aeruginosa (96-well plate, 37° C., 10 h) turned out to be 50 µg/mL. In addition, the “MIC against M. catarrhalis” value with Moraxella catarrhalis (96-well plate, 37° C., 10 h) is 12.5 µg/mL. Also, the “MIC against K. pneumonia” value in the experiment with Klebsiella pneumonia (96-well plate, 37° C., 10 h) came out at 12.5 µg/mL. Further, the “MIC against P. mirabilis” value in the experiment with Proteus mirabilis (96-well plate, 37° C., 10 h) worked out at 50 µg/mL. For the same substance, in the experiment with Proteus vulgaris (96-well plate, 37° C., 10 h), the “MIC against P. vulgaris” value was 25 µg/mL. Further, the “MIC against C. diversus” value against Citrobacter diversus (96-well plate, 37° C., 10 h) stood at 50 µg/mL. This substance gave an MIC in the experiment on E. coli DH5α of 12.5 µg/mL. Moreover, the “MIC against S. marcescens” value against Serratia marcescens (96-well plate, 37° C., 10 h) turned out to be 12.5 µg/mL.
